# Laboratory results reported in ChEMBL document CHEMBL1140816, “Syntheses of tetrahydrothiophenes and tetrahydrofurans and studies of their derivatives as melanocortin-4 receptor ligands” (Bioorg Med Chem Lett, 2008).
# Target: T1, Melanocortin receptor 4 (Homo sapiens, UniProt P32245)
# Assay: Displacement of [125I]NDP-MSH from human MC4R expressed in HEK293 cells
# Type: cell-based
# T1 sequence (P32245 whole entry): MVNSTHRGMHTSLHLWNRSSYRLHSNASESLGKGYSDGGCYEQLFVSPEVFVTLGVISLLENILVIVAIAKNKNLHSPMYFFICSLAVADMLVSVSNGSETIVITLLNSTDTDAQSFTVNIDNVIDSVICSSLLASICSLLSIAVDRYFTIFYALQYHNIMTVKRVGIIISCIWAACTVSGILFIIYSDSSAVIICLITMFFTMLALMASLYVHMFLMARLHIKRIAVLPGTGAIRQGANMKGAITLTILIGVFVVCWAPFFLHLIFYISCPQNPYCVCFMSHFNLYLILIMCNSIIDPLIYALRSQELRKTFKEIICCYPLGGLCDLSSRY
row,SMILES,Ki
1,Cc1ccc(N2CCN(C(=O)[C@@H]3CCO[C@@H]3c3ccc(Cl)cc3)CC2)c([C@@H](N)C(C)C)c1,590 nM
2,CC(C)C[C@H](NC(=O)CCN(C)C)c1cc(C(F)(F)F)ccc1N1CCN(C(=O)[C@H]2CSC[C@@H]2c2ccc(Cl)cc2)CC1,130 nM
3,CC(C)C[C@H](NC(=O)[C@@H](C)N)c1cc(C(F)(F)F)ccc1N1CCN(C(=O)[C@H]2CSC[C@@H]2c2ccc(Cl)cc2)CC1,130 nM
4,CNCC(=O)N[C@@H](CC(C)C)c1cc(C(F)(F)F)ccc1N1CCN(C(=O)[C@H]2CSC[C@@H]2c2ccc(Cl)cc2)CC1,250 nM
5,CC(C)C[C@H](NC(=O)CCN(C)C)c1cc(C(F)(F)F)ccc1N1CCN(C(=O)[C@H]2CS(=O)(=O)C[C@@H]2c2ccc(Cl)cc2)CC1,170 nM
6,CNCCC(=O)N[C@@H](CC(C)C)c1cc(C(F)(F)F)ccc1N1CCN(C(=O)[C@H]2CS(=O)(=O)C[C@@H]2c2ccc(Cl)cc2)CC1,190 nM
7,CC(C)C[C@H](N)c1cc(C(F)(F)F)ccc1N1CCN(C(=O)[C@H]2CS(=O)(=O)C[C@@H]2c2ccc(Cl)cc2)CC1,38 nM
8,Cc1ccc(N2CCN(C(=O)[C@@H]3CCO[C@@H]3c3ccc(Cl)cc3)CC2)c([C@@H](NC(=O)CCN(C)C)C(C)C)c1,120 nM
9,CC(C)[C@H](N)c1cccc(F)c1N1CCN(C(=O)[C@@H]2CCO[C@@H]2c2ccc(Cl)cc2)CC1,2100 nM
10,CC(C)[C@H](NC(=O)CCN(C)C)c1cccc(F)c1N1CCN(C(=O)[C@@H]2CCO[C@@H]2c2ccc(Cl)cc2)CC1,480 nM
11,CC(C)C[C@H](N)c1cc(C(F)(F)F)ccc1N1CCN(C(=O)C2COCC2c2ccc(Cl)cc2)CC1 (some centres not stated),280 nM
12,Cc1ccc(N2CCN(C(=O)[C@@H]3OCC[C@@H]3c3ccc(Cl)cc3)CC2)c([C@@H](NC(=O)CCN(C)C)C(C)C)c1,10 nM
13,CC(C)C[C@H](NC(=O)CCN(C)C)c1cc(C(F)(F)F)ccc1N1CCN(C(=O)[C@H]2CCO[C@@H]2c2ccc(Cl)cc2)CC1,200 nM
14,CC(C)C[C@H](NC(=O)CCN(C)C)c1cc(Cl)ccc1N1CCN(C(=O)[C@H]2CCO[C@@H]2c2ccc(Cl)cc2)CC1,74 nM
15,CC(C)[C@H](NC(=O)CCN(C)C)c1cccc(F)c1N1CCN(C(=O)[C@H]2CS(=O)(=O)C[C@@H]2c2ccc(Cl)cc2)CC1,380 nM
16,CC(C)[C@H](NC(=O)CCN(C)C)c1cccc(F)c1N1CCN(C(=O)[C@@H]2CS(=O)(=O)C[C@H]2c2ccc(Cl)cc2)CC1,37 nM
17,CNCC(=O)N[C@@H](CC(C)C)c1cc(C(F)(F)F)ccc1N1CCN(C(=O)[C@H]2CS(=O)(=O)C[C@@H]2c2ccc(Cl)cc2)CC1,180 nM
18,CC(C)C[C@H](NC(=O)CCN(C)C)c1cc(Cl)ccc1N1CCN(C(=O)[C@@H]2CCO[C@@H]2c2ccc(Cl)cc2)CC1,87 nM
19,CC(C)[C@H](NC(=O)CCN(C)C)c1cccc(F)c1N1CCN(C(=O)C2COCC2c2ccc(Cl)cc2)CC1 (some centres not stated),40 nM

row,SMILES,Ki
1,CC(C)[C@H](NC(=O)CCN(C)C)c1cccc(F)c1N1CCN(C(=O)[C@@H]2COC[C@@H]2c2ccc(Cl)cc2)CC1,28 nM
2,CC(C)[C@H](N)c1cccc(F)c1N1CCN(C(=O)C2COCC2c2ccc(Cl)cc2)CC1 (some centres not stated),790 nM
3,CC(C)C[C@H](N)c1cc(C(F)(F)F)ccc1N1CCN(C(=O)C2C(=O)OCC2c2ccc(Cl)cc2)CC1 (some centres not stated),260 nM
4,CC(C)[C@H](NC(=O)CCN(C)C)c1cccc(F)c1N1CCN(C(=O)[C@H]2COC[C@@H]2c2ccc(Cl)cc2)CC1,30 nM
5,CC(C)C[C@H](NC(=O)[C@@H](C)N)c1cc(C(F)(F)F)ccc1N1CCN(C(=O)[C@H]2CS(=O)(=O)C[C@@H]2c2ccc(Cl)cc2)CC1,100 nM
6,Cc1ccc(N2CCN(C(=O)[C@H]3CCO[C@@H]3c3ccc(Cl)cc3)CC2)c([C@@H](N)C(C)C)c1,410 nM
7,CC(C)C[C@H](NC(=O)CCN)c1cc(C(F)(F)F)ccc1N1CCN(C(=O)C2CC(=O)OC2c2ccc(Cl)cc2)CC1 (some centres not stated),110 nM
8,CC(C)C[C@H](NC(=O)CCN(C)C)c1cc(C(F)(F)F)ccc1N1CCN(C(=O)[C@H]2C[S+]([O-])C[C@@H]2c2ccc(Cl)cc2)CC1 (some centres not stated),230 nM
9,CNCCC(=O)N[C@@H](CC(C)C)c1cc(C(F)(F)F)ccc1N1CCN(C(=O)[C@H]2CSC[C@@H]2c2ccc(Cl)cc2)CC1,170 nM
10,CC(C)C[C@H](N)c1cc(Cl)ccc1N1CCN(C(=O)[C@H]2CCO[C@@H]2c2ccc(Cl)cc2)CC1,280 nM
11,CC(C)C[C@H](NC(=O)CCN(C)C)c1cc(C(F)(F)F)ccc1N1CCN(C(=O)C2COCC2c2ccc(Cl)cc2)CC1 (some centres not stated),71 nM
12,CC(C)C[C@H](NC(=O)CCN)c1cc(C(F)(F)F)ccc1N1CCN(C(=O)C2C(=O)OCC2c2ccc(Cl)cc2)CC1 (some centres not stated),180 nM
13,CC(C)C[C@H](N)c1cc(C(F)(F)F)ccc1N1CCN(C(=O)[C@H]2CCO[C@@H]2c2ccc(Cl)cc2)CC1,330 nM
14,CC(C)C[C@H](NC(=O)CCN(C)C)c1cc(C(F)(F)F)ccc1N1CCN(C(=O)C2C(=O)OCC2c2ccc(Cl)cc2)CC1 (some centres not stated),290 nM
15,CC(C)C[C@H](N)c1cc(C(F)(F)F)ccc1N1CCN(C(=O)[C@H]2CSC[C@@H]2c2ccc(Cl)cc2)CC1,280 nM
16,CC(C)[C@H](N)c1cccc(F)c1N1CCN(C(=O)[C@H]2CCO[C@@H]2c2ccc(Cl)cc2)CC1,1100 nM
17,Cc1ccc(N2CCN(C(=O)[C@H]3OCC[C@@H]3c3ccc(Cl)cc3)CC2)c([C@@H](NC(=O)CCN(C)C)C(C)C)c1,43 nM
18,CC(C)C[C@H](N)c1cc(C(F)(F)F)ccc1N1CCN(C(=O)[C@H]2C[S+]([O-])C[C@@H]2c2ccc(Cl)cc2)CC1 (some centres not stated),120 nM

# Target: T1, Melanocortin receptor 4
# Assay: Antagonist activity at human MC4R assessed as inhibition of alpha MSH-stimulated cAMP release by cell based assay
# Type: functional
row,SMILES,IC50
1,CC(C)C[C@H](N)c1cc(C(F)(F)F)ccc1N1CCN(C(=O)[C@H]2CS(=O)(=O)C[C@@H]2c2ccc(Cl)cc2)CC1,690 nM
2,Cc1ccc(N2CCN(C(=O)[C@@H]3OCC[C@@H]3c3ccc(Cl)cc3)CC2)c([C@@H](NC(=O)CCN(C)C)C(C)C)c1,530 nM

# Target: T1, Melanocortin receptor 4
# Assay: Binding affinity at MC4R
row,SMILES,IC50
1,CC(C)(C)N1C[C@H](C(=O)N2CCC(CN3CCOC3=O)(C3CCCCC3)CC2)[C@@H](c2ccc(F)cc2F)C1,14 nM

# Target: T1, Melanocortin receptor 4
# Assay: Binding affinity at human MC4R
row,SMILES,Ki
1,CC(C)C[C@H](N)c1cc(C(F)(F)F)ccc1N1CCN(C(=O)C(C)(C)Cc2ccc(Cl)cc2)CC1,810 nM

# Target: T1, Melanocortin receptor 4
# Assay: Agonist activity at MC4R
# Type: functional
row,SMILES,EC50
1,CC(C)(C)N1C[C@H](C(=O)N2CCC(CN3CCOC3=O)(C3CCCCC3)CC2)[C@@H](c2ccc(F)cc2F)C1,2 nM
